According to PMC11440508, “Dually Labeled Neurotensin NTS1R Ligands for Probing Radiochemical and Fluorescence-Based Binding Assays” (Journal of Medicinal Chemistry, 2024):

Test: Radiochemical purity after storage (RP-HPLC)
Type: physicochemical
Details: stock solution, degradation by radiolysis
Method: Figure 2 (A) Radiochemical purities (>99%) of [^3H]13 and [^3H]18 directly after synthesis determined by RP-HPLC analysis. (B) Radiochemical purities of [^3H]13 and [^3H]18 determined 11 months after synthesis. The purities amounted to 92% ([^3H]13) and 80% ([^3H]18).
Over a period of 11 months, degradation of both dually labeled ligands by radiolysis was low (Figure 2B).
A solution of succinimidyl [^3H]propionate (molar activity: 3.89 TBq/mmol, purchased from Novandi, Södertälje, Sweden) (55.5 MBq, 0.75 mL, 14.3 nmol) in n-heptane/EtOAc 3:2 v/v was transferred from the delivered ampule into a 1.5 mL polypropylene reaction vessel with screw cap, and the solvent was removed in a vacuum concentrator (30 °C, ca. 30 min). […] To quantify the activity of the two radioligands and to determine the molar concentration, 2 × 2 μL of the preliminary stock solution were added to 998 μL of DMSO/H2O 3:7 v/v, and 4 × 10 μL of these dilutions were counted in 3 mL of liquid scintillator (Rotiscint Eco Plus, Carl Roth, Karlsruhe, Germany) with a Tri-Carb 3100TR liquid scintillation counter (PerkinElmer). […] The molar activity of the labeling reagent succinimidyl [^3H]propionate was determined by liquid chromatography–mass spectrometry (LC-MS) analysis. Coinjection of “cold” succinimidyl propionate allowed the quantification of the incorporated tritium (Novandi, Södertälje, Sweden). […]

CCC(=O)NCCCCNC(=O)NC(=N)NCCC[C@H](NC(=O)[C@@H]1CCCN1C(=O)[C@@H](NC(=O)CCc1cn(CCCNC(=O)c2ccc(-c3c4ccc(=[N+](C)C)cc-4oc4cc(N(C)C)ccc34)c(C(=O)[O-])c2)nn1)C1CCNCC1)C(=O)N[C@@H](CCCNC(=N)N)C(=O)N1CCC[C@H]1C(=O)N[C@@H](Cc1ccc(O)cc1)C(=O)N[C@H](C(=O)N[C@@H](CC(C)C)C(=O)O)[C@@H](C)CC [[^3H]13]
Radiochemical purity 11 months after synthesis: 92%
